Experimental data: patent US20140107109A1, “AMINO-DIHYDROTHIAZINE AND AMINO-DIOXIDO DIHYDROTHIAZINE COMPOUNDS AS BETA-SECRETASE ANTAGONISTS AND METHODS OF USE” (Amgen Inc., priority 2012, published 2014)

Columns and labels:
[1] = tested on: Aβ40 in conditioned medium of cells stably expressing Amyloid Precursor Protein (APP); experiment: In vitro BACE cell-based assay (HEK cell assay), Aβ40 sandwich ELISA; settings: Homo sapiens, HEK293; Aβ40, 24 h incubation
Description: In Vitro BACE Cell-Based Assay
The cell-based assay measures inhibition or reduction of Aβ40 in conditioned medium of test compound treated cells expressing amyloid precursor protein.
Cells stably expressing Amyloid Precursor Protein (APP) were plated at a density of 40K cells/well in 96 well plates (Costar). The cells were cultivated for 24 hours at 37C. and 5% CO2 in DMEM supplemented with 10% FBS. The test compounds were then added to cells in 10-point dose response concentrations with the starting concentration being either 100 μM or 10 μM. The compounds were diluted from stock solutions in DMSO and the final DMSO concentration of the test compounds on cells was 0.1%. After 24 h of incubation with the test compounds the supernatant conditioned media was collected and the Aβ 40 levels were determined using a sandwich ELISA. The IC50 of the compound was calculated from the percent of control or percent inhibition of Aβ 40 as a function of the concentration of the test compound.
The sandwich ELISA to detect Aβ 40 was performed in 96 well microtiter plates, which were pre-treated with goat anti-rabbit IgG (Pierce). The capture and detecting antibody pair that were used to detect Aβ 40 from cell supernatants were affinity purified pAb40 (Biosource) and biotinylated 6E10 (Signet Labs Inc.), respectively. The optimal concentration for the pAb40 antibody was 3 μg/ml in Superblock/TBS (Pierce) that was supplemented with 0.05% Tween 20 (Sigma). Optimal concentration for the detection antibody 6E10-biotinylated was 0.5 μg/ml in Superblock/TBS (Pierce) that had been supplemented with 2% normal goat serum and 2% normal mouse serum.
Cellular supernatants were incubated with the capture antibody for 3 h at 4° C., followed by 3 wash steps in TBS-tween (0.05%). The detecting antibody incubation was for 2 h at 4° C., again followed by the wash steps as described previously. The final readout of the ELISA is Time-Resolved Fluorescence (counts per minute) using Delfia reagents Streptavidin-Europium and Enhancement solutions (Perkin Elmer) and the Victor 2 multilabel counter (Perkin Elmer).

Cathepsin D (Cat D) = molecular target: T1, Cathepsin D (Cat D) (Homo sapiens, UniProt P07339); experiment: In vitro enzymatic Cathepsin D (Cat D) FRET assay; format: biochemical; settings: read-out: CatD IC50
T1 construct: Recombinant Cat D was expressed in CHO cells; made in house; host or cells: CHO cells
Description: In Vitro Enzymatic Cathepsin D (Cat D) FRET (Fluorescence Resonance Energy Transfer) Assay Recombinant Cat D was expressed in CHO cells. […] The Cat D enzyme (9 nM) is pre-incubated for one hour with inhibitors, typically in about 1 uL of DMSO according to a serial dilution, is added thereto. […] The FRET assay is terminated with by addition of Tris buffer, which raises the pH to neutrality, and the fluorescence is determined. The FRET substrate is a peptide with commercially available fluorophore and quencher, on opposite sides of the BACE cleavage site. The Cat D substrate peptide sequence is based on sequence #1 of Table 1 from Gulnik et al. […] Alternatively, a Cat D assay may also be run according to the procedure described in the article, Characterization of new fluorgenic substrates for the rapid and sensitive assay of cathepsin E and cathepsin D, J. Biochem., 125:1137, 1999. In addition, the cathepsin D and cathepsin E assays are described in PCT publication WO2011069934. This WIPO publication describes BACE inhibitor compounds having an amide linker connecting two aromatic groups with extremely poor cathepsin D and/or cathepsin E inhibitory activity (see Table 2). Where available, the in-vitro Cat D FRET assay data for each of the Examples, conducted by the first procedure, is provided.

[2] = molecular target: Beta Secretase enzyme (BACE1) (Homo sapiens, UniProt P56817); experiment: In vitro enzymatic BACE FRET assay; format: biochemical; settings: read-out: BACE1 FRET assay IC50
Description: In Vitro Enzymatic BACE FRET (Fluorescence Resonance Energy Transfer) Assay (Enzyme Assay Data in the Example Tables I and II)
The assay buffer used in this screen is 0.05 M acetate, pH 4.2, 10% DMSO final, 100 uM genapol (which is a nonionic detergent, below its Critical Micelle Concentration). […] This assay is effectively started by the addition of FRET substrate (50 nM) and the combination is incubated for one hour. The FRET assay is terminated with by addition of Tris buffer, which raises the pH to neutrality, and the fluorescence is determined. The FRET substrate is a peptide with commercially available fluorophore and quencher, on opposite sides of the BACE cleavage site. Proteolytic cleavage of the FRET substrate releases quenching of fluorescence (excitation […] and […]).

T1 sequence (P07339 65-412, species assumed): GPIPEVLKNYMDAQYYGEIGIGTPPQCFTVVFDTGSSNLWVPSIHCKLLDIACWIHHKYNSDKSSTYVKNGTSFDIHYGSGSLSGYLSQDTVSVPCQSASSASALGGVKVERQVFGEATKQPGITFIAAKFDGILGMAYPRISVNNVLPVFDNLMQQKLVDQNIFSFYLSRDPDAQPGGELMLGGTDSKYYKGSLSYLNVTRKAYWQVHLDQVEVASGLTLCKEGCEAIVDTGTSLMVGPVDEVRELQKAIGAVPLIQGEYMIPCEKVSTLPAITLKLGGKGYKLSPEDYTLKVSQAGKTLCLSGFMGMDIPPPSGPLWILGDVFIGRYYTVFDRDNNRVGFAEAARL
Sequence of Beta Secretase enzyme (BACE1) (P56817 46-501): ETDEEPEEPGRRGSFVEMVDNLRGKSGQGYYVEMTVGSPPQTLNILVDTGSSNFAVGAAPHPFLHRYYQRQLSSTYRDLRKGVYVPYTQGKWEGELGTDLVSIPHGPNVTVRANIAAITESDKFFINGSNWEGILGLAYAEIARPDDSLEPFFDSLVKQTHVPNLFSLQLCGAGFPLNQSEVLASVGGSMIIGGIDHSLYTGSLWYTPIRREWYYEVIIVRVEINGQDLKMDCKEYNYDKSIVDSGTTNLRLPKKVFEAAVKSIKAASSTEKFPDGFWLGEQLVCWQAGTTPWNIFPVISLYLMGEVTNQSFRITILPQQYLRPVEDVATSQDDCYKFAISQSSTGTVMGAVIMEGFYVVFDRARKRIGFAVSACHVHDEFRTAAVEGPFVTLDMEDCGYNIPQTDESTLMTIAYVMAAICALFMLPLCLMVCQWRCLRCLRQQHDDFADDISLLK

| SMILES | IC50 [1] [µM] | IC50 (Cathepsin D (Cat D)) [µM] | IC50 [2] [µM] |
| --- | --- | --- | --- |
| COc1cnc(C(=O)Nc2ccc(F)c([C@]3(C)CS(=O)(=O)[C@@](C)(F)C(N)=N3)c2)cn1 [Example 30, N-(3-((3R,6R)-5-amino-6-fluoro-3,6-dimethyl-1,1-dioxido-3,6-dihydro-2H-1,4-thiazin-3-yl)-4-fluorophenyl)-5-methoxy-2-pyrazinecarboxamide] | 0.0801 | > 400 | 0.0031 |
| COc1cnc(C(=O)Nc2ccc(F)c(C3(CF)CS(=O)(=O)C(C)(C)C(N)=N3)c2)cn1 (stereo not drawn) [Example 31, N-(3-(-5-amino-3-(fluoromethyl)-6,6-dimethyl-1,1-dioxido-3,6-dihydro-2H-1,4-thiazin-3-yl)-4-fluorophenyl)-5-methoxy-2-pyrazinecarboxamide] | 0.0279 | > 400 | 0.0038 |
| COc1cnc(C(=O)Nc2ccc(F)c(C3(C(F)F)CS(=O)(=O)C(C)(C)C(N)=N3)c2)cn1 (stereo not drawn) [Example 32, N-(3-(-5-amino-3-(difluoromethyl)-6,6-dimethyl-1,1-dioxido-3,6-dihydro-2H-1,4-thiazin-3-yl)-4-fluorophenyl)-5-methoxy-2-pyrazinecarboxamide] | 1.42 | > 400 | 0.0531 |
| CC1(c2cc(NC(=O)c3ccc(Cl)cn3)cc(F)c2F)CS(=O)(=O)C(C)(C)C(N)=N1 (stereo not drawn) [Example 35, N-(3-(-5-amino-3,6,6-trimethyl-1,1-dioxido-3,6-dihydro-2H-1,4-thiazin-3-yl)-4,5-difluorophenyl)-5-chloro-2-pyridinecarboxamide] | 0.0122 | 99.8 | 0.0027 |
| COc1cnc(C(=O)Nc2ccc(F)c([C@]3(C(F)F)CS(=O)(=O)C(C)(C)C(N)=N3)c2)cn1 [Example 36, (S)—N-(3-(5-amino-3-(difluoromethyl)-6,6-dimethyl-1,1-dioxido-3,6-dihydro-2H-1,4-thiazin-3-yl)-4-fluorophenyl)-5-methoxypyrazine-2-carboxamide] | 0.765 | > 400 | 0.0202 |
| CC1(C)C(N)=N[C@](C)(c2cc(NC(=O)c3ccc(Cl)cn3)cc(F)c2F)CS1(=O)=O [Example 38, (R)—N-(3-(5-amino-3,6,6-trimethyl-1,1-dioxido-3,6-dihydro-2H-1,4-thiazin-3-yl)-4,5-difluorophenyl)-5-chloropicolinamide] | 0.0065 | 72.8 | 0.001 |
| CC1(C)C(N)=N[C@@](C)(c2cc(NC(=O)c3ccc(Cl)cn3)cc(F)c2F)CS1(=O)=O [Example 39, (S)—N-(3-(5-amino-3,6,6-trimethyl-1,1-dioxido-3,6-dihydro-2H-1,4-thiazin-3-yl)-4,5-difluorophenyl)-5-chloropicolinamide] | 3.27 | 225 | 1.18 |
| COc1cnc(C(=O)Nc2ccc(F)c([C@]3(C)CS(=O)(=O)C(C)(C)C(N)=N3)n2)cn1 [Example 40, (R)—N-(6-(5-amino-3,6,6-trimethyl-1,1-dioxido-3,6-dihydro-2H-1,4-thiazin-3-yl)-5-fluoropyridin-2-yl)-5-methoxypyrazine-2-carboxamide] | 6.98 | > 400 | 8.2 |
| COc1cnc(C(=O)Nc2cc(C3(C)CS(=O)(=O)C(C)(C)C(N)=N3)c(F)cn2)cn1 (stereo not drawn) [Example 41, N-(4-(5-amino-3,6,6-trimethyl-1,1-dioxido-3,6-dihydro-2H-1,4-thiazin-3-yl)-5-fluoropyridin-2-yl)-5-methoxypyrazine-2-carboxamide] | 0.935 | 333 | 0.252 |
| COc1cnc2c(Nc3ccc(F)c([C@@]4(C)N=C(N)C(C)(C)S(=O)(=O)[C@@H]4F)c3)nccc2c1 [Example 44, (2S,3R)-5-Amino-2-fluoro-3-(2-fluoro-5-((3-methoxy-1,7-naphthyridin-8-yl)amino)phenyl)-3,6,6-trimethyl-3,6-dihydro-2H-1,4-thiazine 1,1-dioxide] | 0.0604 | 357 | 0.0099 |
